Values of other authors in patent publication US20110052686A1, “MODIFIED RELEASE LAMOTRIGINE TABLETS” (RANBAXY LABORATORIES LIMITED, priority 2009, published 2011).

Settings: oral administration

effect of food on bioavailability: not affected by food | first-pass metabolism: negligible first-pass metabolism | time of peak plasma concentrations following drug administration: 1.4 to 4.8 h
Compound: Nc1nnc(-c2cccc(Cl)c2Cl)c(N)n1 [Lamotrigine, 3,5-diamino-6-(2,3-dichlorophenyl)-1,2,4-triazine]
